Patent publication US20220053762A1, “HERBICIDAL COMPOSITIONS” (Bayer Aktiengesellschaft, priority 2018, published 2022)

Tested on: harmful plant species
Test: Specific trial examples: binary compositions applied by the post-emergence method, synergistic effect according to Colby (Tables 3.1-3.2)
Type: in vivo
Procedure: When the observed efficacies already exceed the formal sum total of the values of the tests with individual applications, they also exceed the expected value according to Colby, which is calculated using the formula below and is likewise regarded as an indication of synergism (cf. S. R. Colby; in Weeds 15 (1967) p. 20 to 22):
Seeds or rhizome pieces of mono- and dicotyledonous weeds are placed in sandy loam in pots, covered with soil and grown in a greenhouse under good growth conditions (temperature, air humidity, water supply). Three weeks after sowing, the test plants are treated at the three-leaf stage with the compositions according to the invention. The compositions according to the invention formulated as spray powders or as emulsion concentrates are sprayed onto the green plant parts in various dosages with an application rate of 300 to 800 l/ha of water (equivalent).
The sum total of the effects of the individual applications is reported under E^A; Expected values according to Colby are each reported under E^C.
The rating period is reported in days after application (DAT).

O=C(O)CNCP(=O)(O)O [(B7.5) Glyphosate]
40%: Herbicidal action 14 DAT against Matricaria inodora (50 g a.i./ha) | Herbicidal action 28 DAT against Eleusine indica (50 g a.i./ha) | Herbicidal action 28 DAT against Pharbitis purpurea (50 g a.i./ha) | Herbicidal action 14 DAT against Lolium rigidum (resistant biotype) (450 g a.i./ha) | Herbicidal action 28 DAT against Lolium rigidum (450 g a.i./ha) | Herbicidal action 28 DAT against Polygonum convulvulus (450 g a.i./ha)
85%: Herbicidal action 28 DAT against Veronica hederifolia (150 g a.i./ha) | Herbicidal action 28 DAT against Stellaria media (450 g a.i./ha) | Herbicidal action 28 DAT against Veronica hederifolia (450 g a.i./ha) | Herbicidal action 28 DAT [%] against Abutilon theophrasti (post-emergence, single active compound (Glyphosate series), g a.i./ha: r796 450, r798 5)
10%: Herbicidal action 28 DAT against Digitaria sanguinalis (15 g a.i./ha) | Herbicidal action 14 DAT against Lolium rigidum (50 g a.i./ha) | Herbicidal action 14 DAT against Lolium rigidum (resistant biotype) (50 g a.i./ha) | Herbicidal action 28 DAT against Amaranthus palmeri (res.) (50 g a.i./ha) | Herbicidal action 28 DAT against Euphorbia heterophylla (50 g a.i./ha) | Herbicidal action 28 DAT against Hordeum murinum (50 g a.i./ha) | Herbicidal action 28 DAT against Polygonum convulvulus (150 g a.i./ha)
35%: Herbicidal action 28 DAT against Euphorbia heterophylla (150 g a.i./ha) | Herbicidal action 28 DAT against Amaranthus palmeri (res.) (450 g a.i./ha)
30%: Herbicidal action 14 DAT against Alopecurus myosuroides (50 g a.i./ha) | Herbicidal action 28 DAT against Centaurea cyanus (50 g a.i./ha) | Herbicidal action 28 DAT against Lamium purpureum L. (50 g a.i./ha) | Herbicidal action 28 DAT against Sorghum halepense (50 g a.i./ha) | Herbicidal action 14 DAT against Lolium rigidum (resistant biotype) (150 g a.i./ha) | Herbicidal action 28 DAT against Alopecurus myosuroides (150 g a.i./ha) | Herbicidal action 28 DAT against Raphanus raphanistrum (450 g a.i./ha) | Herbicidal action 28 DAT [%] against Sorghum halepense (post-emergence, single active compound (Glyphosate series), g a.i./ha: r775 50, r777 15, r778 1.67)
95%: Herbicidal action 28 DAT [%] against Setaria viridis (post-emergence, single active compound (Glyphosate series), g a.i./ha: r786 450, r788 1.67)
65%: Herbicidal action 28 DAT against Digitaria sanguinalis (50 g a.i./ha) | Herbicidal action 28 DAT against Ipomoea purpurea (450 g a.i./ha)
0%: Herbicidal action 28 DAT against Alopecurus myosuroides (sensitive biotype) (50 g a.i./ha) | Herbicidal action 28 DAT against Bromus sterilis (50 g a.i./ha) | Herbicidal action 28 DAT against Galium aparine (50 g a.i./ha) | Herbicidal action 28 DAT against Polygonum convulvulus (50 g a.i./ha) | Herbicidal action 28 DAT against Raphanus raphanistrum (50 g a.i./ha) | Herbicidal action 28 DAT against Alopecurus myosuroides (resistant biotype) (150 g a.i./ha) | Herbicidal action 28 DAT against Lolium rigidum (sensitive biotype) (150 g a.i./ha) | Herbicidal action 28 DAT against Polygonum convolvulus (150 g a.i./ha) | Herbicidal action 28 DAT against Polygonum convolvulus (450 g a.i./ha)
75%: Herbicidal action 28 DAT against Matricaria inodora (150 g a.i./ha)
45%: Herbicidal action 28 DAT [%] against Digitaria sanguinalis (post-emergence, single active compound (Glyphosate series), g a.i./ha: r765 50, r767 15)
70%: Herbicidal action 28 DAT against Centaurea cyanus (150 g a.i./ha) | Herbicidal action 28 DAT against Euphorbia heterophylla (450 g a.i./ha)
50%: Herbicidal action 14 DAT against Centaurea cyanus (50 g a.i./ha) | Herbicidal action 14 DAT against Lamium purpureum L. (50 g a.i./ha) | Herbicidal action 14 DAT against Viola tricolor (50 g a.i./ha) | Herbicidal action 14 DAT against Bromus sterilis (150 g a.i./ha) | Herbicidal action 28 DAT against Ipomoea purpurea (150 g a.i./ha) | Herbicidal action 28 DAT against Lamium purpureum L. (150 g a.i./ha) | Herbicidal action 28 DAT against Galium aparine (450 g a.i./ha) | Herbicidal action 28 DAT against Lolium rigidum (sensitive biotype) (450 g a.i./ha)
60%: Herbicidal action 14 DAT against Alopecurus myosuroides (150 g a.i./ha) | Herbicidal action 14 DAT against Lamium purpureum L. (150 g a.i./ha) | Herbicidal action 28 DAT against Lamium purpureum (150 g a.i./ha) | Herbicidal action 14 DAT against Viola tricolor (450 g a.i./ha) | Herbicidal action 28 DAT against Bromus sterilis (450 g a.i./ha) | Herbicidal action 28 DAT against Phalaris minor (450 g a.i./ha)
20%: Herbicidal action 14 DAT against Poa annua L. (50 g a.i./ha) | Herbicidal action 28 DAT against Alopecurus myosuroides (50 g a.i./ha) | Herbicidal action 28 DAT against Echinochloa crus-galli (50 g a.i./ha) | Herbicidal action 28 DAT against Kochia scoparia (50 g a.i./ha) | Herbicidal action 28 DAT against Matricaria inodora (50 g a.i./ha) | Herbicidal action 28 DAT against Alopecurus myosuroides (sensitive biotype) (150 g a.i./ha) | Herbicidal action 28 DAT against Amaranthus palmeri (res.) (150 g a.i./ha) | Herbicidal action 28 DAT against Avena fatua (150 g a.i./ha) | Herbicidal action 28 DAT against Bromus sterilis (150 g a.i./ha) | Herbicidal action 28 DAT against Viola tricolor (150 g a.i./ha)
88%: Herbicidal action 14 DAT against Matricaria inodora (150 g a.i./ha)
80%: Herbicidal action 28 DAT against Brachiaria platyphylla (50 g a.i./ha) | Herbicidal action 28 DAT against Eleusine indica (150 g a.i./ha) | Herbicidal action 28 DAT against Lamium purpureum (450 g a.i./ha) | Herbicidal action 28 DAT against Lamium purpureum L. (450 g a.i./ha) | Herbicidal action 28 DAT against Matricaria inodora (450 g a.i./ha)
15%: Herbicidal action 28 DAT against Ipomoea purpurea (50 g a.i./ha)

C=C[C@]1(C(=O)N[C@@H]2C=C(C(=O)NS(C)(=O)=O)OC2)CC(c2cc(F)cc(F)c2)=NO1 [Compound A4, (5S)-3-(3,5-difluorophenyl)-N-[(3R)-5-(methylsulfonylcarbamoyl)-2,3-dihydrofuran-3-yl]-5-vinyl-4H-isoxazole-5-carboxamide]
0%: Herbicidal action 28 DAT against Alopecurus myosuroides (1 g a.i./ha) | Herbicidal action 28 DAT against Viola tricolor (1 g a.i./ha) | Herbicidal action 28 DAT against Lolium rigidum (resistant biotype) (4 g a.i./ha) | Herbicidal action 28 DAT against Viola tricolor (4 g a.i./ha) | Herbicidal action against Viola tricolor ((Z90) 28 DAT, g a.i./ha: r624 4, r625 270) | Herbicidal action in [%] 28 DAT against Lolium rigidum (resistant bio type) (post-emergence, single active compound (A4 series), g a.i./ha: r523 1, r524 450)
20%: Herbicidal action 14 DAT against Bromus sterilis (1 g a.i./ha) | Herbicidal action 14 DAT against Poa annua L. (1 g a.i./ha) | Herbicidal action 28 DAT against Lamium purpureum L. (1 g a.i./ha) | Herbicidal action 28 DAT against Galium aparine (16 g a.i./ha) | Herbicidal action against Galium aparine ((Z90) 28 DAT, g a.i./ha: r575 16, r576 270, r577 90, r578 30) | Herbicidal action in [%] 28 DAT against Galium aparine (post-emergence, single active compound (A4 series), g a.i./ha: r491 16, r492 50) | Herbicidal action in [%] 28 DAT against Lamium purpureum L. (post-emergence, single active compound (A4 series), g a.i./ha: r512 4, r513 1, r514 450)
40%: Herbicidal action 14 DAT against Matricaria inodora (1 g a.i./ha) | Herbicidal action 14 DAT against Centaurea cyanus (16 g a.i./ha) | Herbicidal action 14 DAT against Poa annua L. (16 g a.i./ha) | Herbicidal action in [%] 14 DAT against Poa annua L. (post-emergence, single active compound (A4 series), g a.i./ha: r533 16, r534 450)
10%: Herbicidal action 14 DAT against Alopecurus myosuroides (1 g a.i./ha) | Herbicidal action 14 DAT against Lolium rigidum (resistant biotype) (1 g a.i./ha) | Herbicidal action 28 DAT against Bromus sterilis (1 g a.i./ha) | Herbicidal action 28 DAT against Matricaria inodora (1 g a.i./ha) | Herbicidal action 14 DAT against Lolium rigidum (resistant biotype) (4 g a.i./ha) | Herbicidal action 28 DAT against Lolium rigidum (4 g a.i./ha) | Herbicidal action 28 DAT against Matricaria inodora (4 g a.i./ha) | Herbicidal action 28 DAT against Phalaris minor (4 g a.i./ha) | Herbicidal action against Lolium rigidum ((Z90) 28 DAT, g a.i./ha: r594 16, r595 30) | Herbicidal action against Matricaria inodora ((Z90) 28 DAT, g a.i./ha: r602 4, r603 90)
30%: Herbicidal action 14 DAT against Viola tricolor (1 g a.i./ha) | Herbicidal action 14 DAT against Centaurea cyanus (4 g a.i./ha) | Herbicidal action 14 DAT against Lamium purpureum L. (4 g a.i./ha) | Herbicidal action 14 DAT against Matricaria inodora (4 g a.i./ha) | Herbicidal action 14 DAT against Viola tricolor (4 g a.i./ha) | Herbicidal action 28 DAT against Bromus sterilis (4 g a.i./ha) | Herbicidal action 14 DAT against Alopecurus myosuroides (16 g a.i./ha) | Herbicidal action against Lamium purpureum L. ((Z90) 28 DAT, g a.i./ha: r586 16, r587 30) | Herbicidal action in [%] 14 DAT against Lamium purpureum L. (post-emergence, single active compound (A4 series), g a.i./ha: r501 4, r502 1, r503 450)
